Test results taken from patent US20210046096A1, “Pharmaceutical Composition of Brigatinib” (Sandoz AG, priority 2018, published 2021).
Like-named read-outs stand apart in the source and are kept apart here.

Experiments:
[1] = cited from earlier work
[2] = Moisture stability at accelerated stress conditions, analysed by PXRD; type: physicochemical; details: open storage, physical form by PXRD
Experimental: Powder X-ray diffraction was performed with a PANalytical X'Pert PRO diffractometer equipped with a theta/theta coupled goniometer in transmission geometry, Cu-Kalpha1,2 radiation (wavelength 0.15419 nm) with a focusing mirror and a solid state PIXcel detector. Diffractograms were recorded at a tube voltage of 45 kV and a tube current of 40 mA, applying a stepsize of 0.013° 2-Theta with 40 s per step (255 channels) in the angular range of 2° to 40° 2-Theta at ambient conditions.
Moisture stability at accelerated stress conditions was performed in a Memmert constant climate chamber HPP110. 30-50 mg of a given solid composition prepared according to the Examples and Comparative Example herein were exposed to an atmosphere having a relative humidity of 75±0.5% and a temperature of 40±0.5° C. for a period of time as indicated in Tables 1-3 below and analyzed via PXRD as described above.
Brigatinib (1.50 g, e.g. prepared according to the procedures disclosed in WO 2016/065028 A1, part V) was dissolved in 75 mL of acetonitrile/water solution (volume ratio 50:50). The solution was filtered. The homogeneous solution was frozen in a bath of liquid nitrogen and lyophilized at a pressure of from 0.02 to 1.0 mbar, yielding amorphous brigatinib, as confirmed by the PXRD depicted in FIG. 1. The obtained amorphous brigatinib was stored open under accelerated stability conditions (temperature: 40° C., relative humidity: 75%).
Brigatinib (about 100 mg, e.g. prepared according to the procedures disclosed in WO 2016/065028 A1, part V) and the organic polymer (about 100 mg) according to Table 2 were dissolved in 7 to 8 mL of acetonitrile/water solution (volume ratio 50:50). The homogeneous solution was frozen in a bath of liquid nitrogen and lyophilized at a pressure of from 0.02 to 1.0 mbar, yielding an amorphous solid dispersion of brigatinib. The so obtained solid dispersion was open stored under accelerated stability conditions (temperature: 40° C., relative humidity: 75%) for three weeks. […]

[3] = Stability in the amorphous state upon storage (PXRD), general statements; type: physicochemical; details: conditions not given, judged by PXRD
Description: The brigatinib in the context of the solid dispersion of the present invention is stable in the amorphous state upon storage, as judged by the absence of characteristic PXRD peaks after storage. […] Also in the context of solid dispersions with carriers such as polyvinylpyrrolidon PVP-40000 or Syloid® AL-1FP, amorphous brigatinib converts to crystalline brigatinib upon storage.

[4] = Thermogravimetric mass spectroscopy (TGMS) thermal stability; type: physicochemical; details: heated 25° C. to 250° C. at 10° C./min
Experimental: Thermogravimetric analysis (TGA) was performed on a Mettler Toledo TGA/DSC 1 instrument. Samples were heated in 100 μl aluminium pans closed with aluminium lids. Lids were automatically pierced at the beginning of the measurement. Samples were initially kept at 25° C. for 2.5 minutes and then heated from room temperature to 250° C. at a rate of 10° C./min. Nitrogen (purge rate 30 ml/min) was used as purge gas.
Mass spectrometry (MS) measurements, coupled with thermogravimetric analysis (TGA), were performed with a Pfeiffer GSD 320 ThermoStar Gas Analysis System. A part of the headspace was evacuated with a capillary placed near the TG sample pan, and mass fragments between 1-100 atomic mass units (amu) were analyzed simultaneously without further separation applying a secondary electron multiplier (SEM) for signal amplification.

[5] = as described in WO 2016/065028 A1

## COc1cc(N2CCC(N3CCN(C)CC3)CC2)ccc1Nc1ncc(Cl)c(Nc2ccccc2P(C)(C)=O)n1 [Form B, 5-chloro-N4-[2-(dimethylphosphoryl)phenyl]-N2-[2-methoxy-4-[4-(4-methylpiperazin-1-yl)piperidin-1-yl]phenyl]pyrimidine-2,4-diamine]
[1]; [5]
  Hygroscopicity: hydroscopic
  Relative humidity at which the form reversibly converts to hydrated crystalline forms C or D: above 30%
[1]; elevated temperature, WO 2016/065028 A1
  Temperature at which the form transforms to form A: above 150 °C

## COc1cc(N2CCC(N3CCN(C)CC3)CC2)ccc1Nc1ncc(Cl)c(Nc2ccccc2P(C)(C)=O)n1 [Brigatinib, 5-chloro-N4-[2-(dimethylphosphoryl)phenyl]-N2-[2-methoxy-4-[4-(4-methylpiperazin-1-yl)piperidin-1-yl]phenyl]pyrimidine-2,4-diamine]
[2]
  PXRD analysis after storage at 40° C. and 75% RH for 1 week: Form A
[2]; listed as neat amorphous brigatinib
  PXRD analysis after storage at 40° C. and 75% RH for 1 week: contained crystalline Form A
[2]; 3 weeks
  PXRD analysis after storage at 40° C. and 75% RH for 3 weeks: Form A
[3]
  Stability of the amorphous state upon storage: readily converts to crystalline form A of brigatinib upon storage for as short as one week only

## COc1cc(N2CCC(N3CCN(C)CC3)CC2)ccc1Nc1ncc(Cl)c(Nc2ccccc2P(C)(C)=O)n1 [brigatinib form A, 5-chloro-N4-[2-(dimethylphosphoryl)phenyl]-N2-[2-methoxy-4-[4-(4-methylpiperazin-1-yl)piperidin-1-yl]phenyl]pyrimidine-2,4-diamine]
[1]; as described in WO 2016/065028 A1, listed as Form A
  Hygroscopicity: non-hygroscopic
[4]
  Temperature at which the chemistry of the sample changes (TGMS): about 100 °C
